PubChem BioAssay (NCI)
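Dose response: 5 concentrations. Exposure: 48 h. Format: 96-well plates. Endpoint: linear interpolation; highest concentration if not reached. The concentration for 50% growth inhibition is given as GI50. TGI marks complete inhibition of growth.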

Legend:
Assay in all cases: NCI-60 cell line screen, 48 h
[1] = test system: MDA-MB-435
[2] = test system: UACC-257 melanoma
[3] = test system: COLO 205 colon
[4] = test system: HS 578T breast
[5] = test system: OVCAR-5 ovarian
[6] = test system: K-562 leukemia
[7] = test system: SK-MEL-28 melanoma
[8] = test system: KM12 colon
[9] = test system: SW-620 colon
[10] = test system: SF-268 CNS

| Structure (SMILES) | TGI [1] [µM] | TGI [2] [µM] | TGI [3] [µM] | TGI [4] [µM] | TGI [5] [µM] | TGI [6] [µM] | TGI [7] [µM] | TGI [8] [µM] | TGI [9] [µM] | TGI [10] [µM] | GI50 [6] [µM] |
| --- | --- | --- | --- | --- | --- | --- | --- | --- | --- | --- | --- |
| OCC1CCCCN1Cc1nc2ccc(Cl)cc2[nH]1 (stereo unspecified) | > 100 | > 100 | > 100 | > 100 | > 100 | > 100 | > 100 | > 100 | > 100 | > 100 |  |
| CCOC(=O)NNC1(SC)NC(=O)c2c(cc(Cl)oc2=O)O1 (stereo unspecified) | 17.6 | 30.4 | 25.9 | 12.3 | 25.2 | 9.07 | 10.5 | 23.6 | > 37 | 10.7 |  |
| c1ccc2c(Cc3c[nH]c4ccccc34)c[nH]c2c1 | 31.3 | 34.5 | 27.8 | 63.3 | 29.4 | > 100 | > 100 | 40.5 | 61.6 | 45.7 |  |
| COc1ccc(CN=C2Nc3ccncc3S(=O)(=O)N2c2ccccc2)cc1 | 80.7 | > 100 | > 100 | > 100 | > 100 | 93.2 | 87.6 | > 100 | > 100 | > 100 |  |
| O=C1CNc2cc(N3CCN(c4cccc(C(F)(F)F)c4)CC3)ccc2N1 | > 100 | > 100 | > 91.7 | > 100 | > 100 | > 100 | > 100 | > 100 | > 100 | > 100 | 9 |
| COc1ccc(C2c3cc4c(cc3OC(N3CCOCC3)C2C)OCO4)c(OC)c1 (stereo unspecified) | 8.83 | 85.1 | > 57.6 | 8.22 | 73.9 | 25 | 29.8 | 34 | 52.5 | 53 |  |
| C#CCSc1cnc2ccccc2c1Sc1c[nH]c2ccccc2c1=O | > 100 | 64.4 | > 100 | > 100 | > 100 | > 100 | > 100 | 65 | > 100 | > 100 |  |
| CCOC(=O)C1(Cc2ccccc2)CCN(C(=O)c2ccccc2)C2C1C2(Cl)Cl (stereo unspecified) | 48.3 | 36.3 | 35.9 | 71.5 | 98.4 | > 100 | 51.6 | 94.9 | > 100 | 91.8 |  |
| CC1=NN(C(=O)CC(=O)Nc2cccc(Cl)c2)C(=O)C1N=Nc1ccc(S(=O)(=O)c2ccc(N=NC3C(=O)N(C(=O)CC(=O)Nc4cccc(Cl)c4)N=C3C)cc2)cc1 (stereo unspecified) | > 100 | > 100 | > 100 | > 100 | > 100 | > 100 | > 100 | > 100 | > 100 | > 100 |  |
| C(/C=N/NC1=NCCN1)=N\NC1=NCCN1 | > 100 | > 100 | > 100 | > 100 | > 100 | 31.6 | > 100 | > 100 | > 100 | > 100 |  |
| O=S(=O)(NC(c1ccccc1)(c1cc2ccccc2[nH]1)c1cc2ccccc2n1S(=O)(=O)c1ccccc1)c1ccccc1 (stereo unspecified) | > 100 | > 100 | > 100 | > 100 | > 100 | > 100 | > 100 | > 100 | > 100 | > 100 |  |
| CCOC(=O)CC[C@@H](NC(=O)c1ccc(NCc2ccc3nc(OC)c(OC)nc3c2)cc1)C(=O)OCC | 99.2 | 31.4 | 69.4 | > 80.9 | > 100 | > 100 | 22.8 | > 100 | > 100 | > 100 |  |
| O=C(COC(=O)c1ccccc1)c1ccc(Br)cc1 | 20.4 | 28.8 | 26.5 | 29.6 | 22.8 | > 100 | 32.1 | 37 | 21.8 | 34.4 |  |
| C/C=C/[C@@H]1O[C@H](CC#C[Si](C)(C)C)[C@@]2(C=O)C(C)=CC[C@H](C(C)C)[C@@H]12 | 42.5 | 32.5 | 66.1 | > 100 | 40.2 | > 100 | 47.8 | 40.8 | 59.5 | 52.3 |  |
| O=[N+]([O-])/C(C(Cl)=C(Cl)Cl)=C(/Sc1ccccc1)N1CCOCC1 | 9.2 | 23.6 | 11 | 59.5 | 31 | 3.89 | 17.6 | 32.7 | 6.96 | 17 |  |
| CNC(=O)CNC(=O)CCC(=O)N(C)C | > 100 | > 100 | > 100 | > 100 | > 100 | > 100 | > 100 | > 100 | > 100 | > 100 |  |
| O=C(CN=C(CN(c1ccccc1)c1ccccc1)Oc1c([N+](=O)[O-])cc([N+](=O)[O-])cc1[N+](=O)[O-])N1CCNCC1 | > 100 | > 100 | > 100 | > 100 | > 100 | > 100 | > 100 | > 100 | > 100 | > 100 |  |
